Drawing on US12384800B2, “Antitumoral compounds” (priority 2017, dated 2025), this text covers GI50, TGI and CC50 for twelve compounds.

The structures appear in SMILES notation.

Test in all cases: cells
Data set [1] deals with MDA-MB-231 cells (breast adenocarcinoma). The note with it: for TGI: total cell growth inhibition; for TGI / CC50: 72 hours; for CC50: read-out: LC50, 50% net cell killing. The source says:
(§1) The aim of this assay is to evaluate the in vitro cytostatic (ability to delay or arrest tumor cell growth) or cytotoxic (ability to kill tumor cells) activity of the samples being tested.
(§2) A colorimetric assay, using sulforhodamine B (SRB) reaction has been adapted to provide a quantitative measurement of cell growth and viability (following the technique described by Skehan et al. J. Natl. Cancer Inst. 1990, 82, 1107-1112). Another colorimetric assay based on 3-(4,5-Dimethylthiazol-2-yl)-2,5-diphenyltetrazolium bromide (MTT) reduction to a purple formazan has been also used to assess the antiproliferative activity (following the technique described by Mosmann et al. J. Immunol. Meth. 1983, 65, 55-63).
(§3) These forms of assays employ 96-well cell culture microplates following the standards of the American National Standards Institute and the Society for Laboratory Automation and Screening (ANSI SLAS 1-2004 (R2012) Oct. 12, 2011. All the cell lines used in this study were obtained from the American Type Culture Collection (ATCC) and derive from different types of human cancer.
(§4) A549, HT29, MDA-MB-231 and PSN1 cells were maintained in Dulbecco's Modified Eagle Medium (DMEM) while PC-3 and 22Rv1 cells were maintained in Roswell Park Memorial Institute Medium (RPMI). All cell lines were supplemented with 10% Fetal Bovine Serum (FBS), 2 mM L-glutamine, 100 U/mL penicillin, and 100 […] at 37° C., 5% CO2 and 98% humidity. For the experiments, cells were harvested from subconfluent cultures using trypsinization and resuspended in fresh medium before counting and plating.
(§5) A549, HT29, MDA-MB-231 and PSN1 cells were seeded in 96 well microtiter plates, at 5000 cells per well in aliquots of 150 μL, and allowed to attach to the plate surface for 18 hours (overnight) in drug free medium. After that, one control (untreated) plate of each cell line was fixed (as described below) and used for time zero reference value. Culture plates were then treated with test compounds (50 μL aliquots of 4× stock solutions in complete culture medium plus 4% DMSO) using ten ⅖ serial dilutions (concentrations ranging from 10 to 0.003 μg/mL) and triplicate cultures (1% final concentration in DMSO). After 72 hours treatment, the antitumor effect was measured by using the SRB methodology: Briefly, cells were washed twice with PBS, fixed for 15 min in 1% glutaraldehyde solution at room temperature, rinsed twice in PBS, and stained in 0.4% SRB solution for 30 min at room temperature. Cells were then rinsed several times with 1% acetic acid solution and air-dried at room temperature.
(§6) Effects on cell growth and survival were estimated by applying the NCI algorithm (Boyd M R and Paull K D. Drug Dev. Res. 1995, 34, 91-104). The values obtained in triplicate cultures were fitted by nonlinear regression to a four-parameters logistic curve by nonlinear regression analysis.

Data set [2] deals with HT29 cells (colorectal adenocarcinoma). The note with it: HT29, SRB; for GI50: 72 hours treatment; for TGI: total cell growth inhibition; for TGI / CC50: 72 hours; for CC50: read-out: LC50, 50% net cell killing.
Excerpt: as §1, §2, §3, §4, §5, §6

Data set [3] deals with A549 cells (lung carcinoma, NSCLC). The note with it: A549, SRB; for GI50: 72 hours treatment; for TGI: total cell growth inhibition; for TGI / CC50: 72 hours; for CC50: read-out: LC50, 50% net cell killing.
Excerpt: as §1, §2, §3, §4, §5, §6

In data set [4] the test system is PSN1 cells (pancreas adenocarcinoma). The note with it: PSN1, SRB; for GI50: 72 hours treatment; for TGI: total cell growth inhibition; for TGI / CC50: 72 hours; for CC50: read-out: LC50, 50% net cell killing.
Excerpt: as §1, §2, §3, §4, §5, §6

Setting [5] is: MDA-MB-231, 72 hours treatment, SRB.

The GI50 is the concentration that inhibits growth by half. A high value points to lower sensitivity of the cells.

On to `COc1c(C)cc2c(c1O)[C@@H]1[C@@H]3[C@@H]4SC[C@]5(N[C@H](CO)Cc6c5oc5ccccc65)C(=O)OC[C@@H](c5c6c(c(C)c(OC(C)=O)c54)OCO6)N3[C@@H](C#N)[C@H](C2)N1C` [Compound 38-S], for which the concentration for 50% growth inhibition (GI50) in data set [1] (setting [5]) worked out at 2.52 nM; in data set [2], 4.53 nM; in data set [3], 8.05 nM; in data set [4] it was 5.03 nM. Besides, the TGI was determined as 4.28E−09 Molar in data set [1] (MDA-MB-231, SRB); 7.05E−09 Molar in data set [2]; 8.55E−09 Molar in data set [3]; 8.18E−09 Molar in data set [4]. The CC50 in data set [1] (MDA-MB-231, SRB) is 7.8 nM; in data set [2] it was over 126 nM; in data set [3], 9.44 nM; in data set [4], 15.1 nM.

For the compound `COc1ccc2[nH]c3c(c2c1)C[C@@H](CN)N[C@]31CS[C@@H]2c3c(OC(C)=O)c(C)c4c(c3[C@H](COC1=O)N1[C@@H]2[C@H]2c3c(cc(C)c(OC)c3O)C[C@@H]([C@@H]1C#N)N2C)OCO4` [Compound 26-S], the GI50 in data set [1] (setting [5]) stood at 1.34 nM; in data set [2], 2.79 nM; in data set [3] it was 11.2 nM; in data set [4], 3.04 nM. Also, the TGI in data set [1] (MDA-MB-231, SRB) was determined as 1.94E−09 Molar; in data set [2], 3.16E−09 Molar; in data set [3], 2.19E−08 Molar; in data set [4], 3.28E−09 Molar. Moreover, the CC50 in data set [1] (MDA-MB-231, SRB) is 3.89 nM; in data set [2], over 122 nM; in data set [3], over 122 nM; in data set [4], 3.52 nM.

`COc1c(C)cc2c(c1O)[C@@H]1[C@@H]3[C@@H]4SC[C@]5(N[C@@H](CN)Cc6c5[nH]c5ccccc65)C(=O)OC[C@@H](c5c6c(c(C)c(OC(C)=O)c54)OCO6)N3[C@@H](C#N)[C@H](C2)N1C` [Compound 11-R]: in data set [2], the GI50 was determined as 1.39 nM, the TGI was over 1.26E−07 Molar and the CC50 was over 126 nM. For the same compound, in data set [3], it took 1.77 nM to inhibit growth by half (GI50), the TGI is on record as 4.54E−09 Molar and the CC50 was over 126 nM. In data set [4], the concentration for 50% growth inhibition (GI50) came out at 1.39 nM, the TGI is listed as 1.89E−09 Molar and the CC50 was over 126 nM.

With `C=CCOC(=O)NC[C@H]1Cc2c([nH]c3ccc(OC)cc23)[C@@]2(CS[C@@H]3c4c(OC(C)=O)c(C)c5c(c4[C@H](COC2=O)N2[C@@H]3[C@H]3c4c(cc(C)c(OC)c4O)C[C@@H]([C@@H]2C#N)N3C)OCO5)N1` [Compound 25-R], the TGI was determined as 2.54E−09 Molar in data set [1] (MDA-MB-231, SRB); 2.76E−09 Molar in data set [2]; 2.43E−09 Molar in data set [3]; 2.32E−09 Molar in data set [4]. For the same compound, the CC50 was 8.38 nM in data set [1] (MDA-MB-231, SRB); over 110 nM in data set [2]; 9.92 nM in data set [3]; 6.73 nM in data set [4]. The GI50 in data set [2] stood at 1.54 nM; in data set [3], 1.32 nM.

In the case of `COc1c(C)cc2c(c1O)[C@@H]1[C@@H]3[C@@H]4SC[C@]5(NCCc6c5oc5ccccc65)C(=O)OC[C@@H](c5c6c(c(C)c(OC(C)=O)c54)OCO6)N3[C@@H](C#N)[C@H](C2)N1C` [Compound 31], the concentration for 50% growth inhibition (GI50) was found to be 8.89 nM in data set [1] (setting [5]), 10.5 nM in data set [2], 19.6 nM in data set [3] and 6.8 nM in data set [4]. The TGI was 1.70E−08 Molar in data set [1] (MDA-MB-231, SRB); 1.57E−08 Molar in data set [2]; 2.09E−08 Molar in data set [3]; 1.57E−08 Molar in data set [4]. Further, the CC50 in data set [1] (MDA-MB-231, SRB) was 35.3 nM; in data set [2], over 131 nM; in data set [3], 23.5 nM; in data set [4], 43.1 nM.

As to `COc1c(C)cc2c(c1O)[C@@H]1[C@@H]3[C@@H]4SC[C@]5(N[C@H](C)Cc6c5[nH]c5ccccc65)C(=O)OC[C@@H](c5c6c(c(C)c(OC(C)=O)c54)OCO6)N3[C@@H](C#N)[C@H](C2)N1C` [A, reference compound], the figures for the GI50 in data set [1] (setting [5]), in data set [3] and in data set [4] were 7.07 nM, 8.36 nM and 12.9 nM, respectively. Besides, the TGI in data set [1] (MDA-MB-231, SRB) stood at 9.38E−09 Molar; in data set [2], 8.36E−09 Molar; in data set [3], 8.87E−09 Molar; in data set [4], 1.54E−08 Molar. The CC50 in data set [1] (MDA-MB-231, SRB) was 14.1 nM; in data set [2], over 129 nM; in data set [3] it was over 129 nM; in data set [4] it was 19.3 nM.

On to `C=CCOC(=O)NC[C@H]1Cc2c([nH]c3ccccc23)[C@@]2(CS[C@@H]3c4c(OC(C)=O)c(C)c5c(c4[C@H](COC2=O)N2[C@@H]3[C@H]3c4c(cc(C)c(OC)c4O)C[C@@H]([C@@H]2C#N)N3C)OCO5)N1` [Compound 10-R], for which, in data set [2], the TGI is recorded as over 1.14E−07 Molar and the CC50 was over 114 nM.

Turning to `COc1c(C)cc2c(c1O)[C@@H]1[C@@H]3[C@@H]4SC[C@]5(N[C@H](C(=O)O)Cc6c5[nH]c5ccccc65)C(=O)OC[C@@H](c5c6c(c(C)c(OC(C)=O)c54)OCO6)N3[C@@H](C#N)[C@H](C2)N1C` [Compound 14-S, reference compound], the GI50 in data set [1] (setting [5]) was 54.5 nM; in data set [2] it was 121 nM; in data set [3], over 124 nM; in data set [4], over 124 nM. Further, the TGI is listed as 1.13E−07 Molar in data set [1] (MDA-MB-231, SRB); over 1.24E−07 Molar in data set [2]; over 1.24E−07 Molar in data set [3]; over 1.24E−07 Molar in data set [4]. Besides, the CC50 in data set [1] (MDA-MB-231, SRB) is over 124 nM; in data set [2], over 124 nM; in data set [3], over 124 nM; in data set [4], over 124 nM.

Turning to `COc1ccc2[nH]c3c(c2c1)C[C@@H](CO)N[C@]31CS[C@@H]2c3c(OC(C)=O)c(C)c4c(c3[C@H](COC1=O)N1[C@@H]2[C@H]2c3c(cc(C)c(OC)c3O)C[C@@H]([C@@H]1C#N)N2C)OCO4` [Compound 18-S], the TGI is listed as 1.34E−09 Molar in data set [1] (MDA-MB-231, SRB); 1.34E−09 Molar in data set [2]; 3.03E−09 Molar in data set [3]; 1.34E−09 Molar in data set [4]. Moreover, the CC50 in data set [1] (MDA-MB-231, SRB) stood at 1.58 nM. Also, the 50% growth inhibitory concentration (GI50) in data set [3] was 1.7 nM; in data set [4], 0.959 nM.

On to `COc1c(C)cc2c(c1O)[C@@H]1[C@@H]3[C@@H]4SC[C@]5(N[C@@H](CO)Cc6c5oc5ccccc65)C(=O)OC[C@@H](c5c6c(c(C)c(OC(C)=O)c54)OCO6)N3[C@@H](C#N)[C@H](C2)N1C` [Compound 38-R], for which the GI50 worked out at 0.453 nM in data set [1] (setting [5]), 0.541 nM in data set [2], 0.654 nM in data set [3] and 0.654 nM in data set [4]. The TGI in data set [1] (MDA-MB-231, SRB) came to 8.43E−10 Molar; in data set [2], 5.91E−10 Molar; in data set [3] it was 1.04E−09 Molar; in data set [4], 9.94E−10 Molar. Further, the CC50 was 2.01 nM in data set [1] (MDA-MB-231, SRB); over 126 nM in data set [2]; over 126 nM in data set [3]; 1.76 nM in data set [4].

Take `COc1c(C)cc2c(c1O)[C@@H]1[C@@H]3[C@@H]4SC[C@]5(N[C@H](CN)Cc6c5[nH]c5ccccc65)C(=O)OC[C@@H](c5c6c(c(C)c(OC(C)=O)c54)OCO6)N3[C@@H](C#N)[C@H](C2)N1C` [Compound 11-S]: in data set [2], the TGI is on record as over 1.26E−07 Molar and the CC50 is over 126 nM. Also, the CC50 in data set [3] was over 126 nM.

In data set [1] (Homo sapiens, MDA-MB-231, 72 h), `C=CCOC(=O)NC[C@@H]1Cc2c(oc3ccccc23)[C@@]2(CS[C@@H]3c4c(OC(C)=O)c(C)c5c(c4[C@H](COC2=O)N2[C@@H]3[C@H]3c4c(cc(C)c(OC)c4O)C[C@@H]([C@@H]2C#N)N3C)OCO5)N1` [Compound 45-S] yielded a GI50 of 11.7 nM.
